This is an account of results in patent US20060063839A1, “Inhibitors of decrease in body temperature” (AJINOMOTO CO., INC., priority 2003, published 2006).

SMILES strings stand for the structures.

Common to all, as to format: in vivo, rat
Assay [1] relates to rats under propofol anesthesia. Description: Measurement 1 of inhibiting effect of decrease in body temperature (rectal temperature, propofol anesthesia). The following applies: for variation of body temperature in 3 hours after administering the anesthesia solution to that before administration: average; for inhibiting effect of decrease in body temperature (core temperature), in words: summary of Table 2. How it is done: A catheter was inserted into an external jugular vein of each of rats used in the evaluation in advance and a tip of the catheter was […] from their backs and locked with heparin. […] Then, 42 mL/kg thereof were continuously administered for 1 hour simultaneously with the start of administration of the anesthesia agent. Numbers of each group were set to 4 to 6. As for the administration of the anesthesia agent, 15 mg/kg thereof was intravenously administered through the catheter with bolus method at the beginning. […] As for the measurement of the body temperature, a former value was measured with a rectal thermometer before administering amino acid solutions, and values were measured at 30-minute intervals from the start of administration of the anesthesia agent until 3 hours after the end thereof. The measurement results were calculated as variations (value before administration-value after administration) of values in 3 hours after administering the anesthesia solution to those before administration and represented with average ± standard deviation. As for a statistical test, comparison between two groups with the normal saline solution was conducted using student t-test.

The subject of assay [2] is rats under propofol anesthesia. Kind of assay: Measurement 2 of inhibiting effect of decrease in body temperature: timing of valine administration (Groups A to D). How it is done:
Examination was conducted on whether differences of the inhibiting effect of decrease in body temperature of valine were shown depending on difference of timings of administration (following A to D). A catheter was inserted into an outward jugular vein of each of rats (7 to 8 weeks age) used in the evaluation in advance and a tip of the catheter was exserted from their backs and locked with heparin. The rats were recovered for a few days in the status quo. Valine was administered through the catheter with the following four methods:
A: for 2 hours before the start of administration of propofol
B: for 1 hour before the start of administration of propofol+1 hour after the start of administration of propofol
C: for 2 hours simultaneously with the start of administration of propofol
D: for 2 hours starting from 1 hour after the start of administration of propofol. 105 mg/kg of valine containing 10.5 mL/kg of 1% valine solution was administered to Group A eight times at 15-minute intervals. 105 mg/kg of valine containing 10.5 mL/kg of 1% valine solution was administered to Group B four times at 15-minute intervals and then continuously administered for 1 hour in 420 mg/kg/hr containing 42 mL/kg of 1% valine solution. Valine was continuously administered to Groups C and D for 2 hours in 420 mg/kg/hr containing 42 mL/kg of 1% valine solution. Each group (n=8 to 9) was administered the same total dose of valine. 15 mg/kg of a propofol anesthesia agent was administered through the catheter at the beginning and, after induction of anesthesia, it was continuously administered for 3 hours in 33.75 mg/kg/hr.

For assay [3], the system named is rats with surgical invasion under propofol anesthesia. Description: Effect on recovery from operative invasion (abdominal surgery under propofol anesthesia; body temperature and survival). Here is the method:
A catheter was inserted into an external jugular vein of each of rats (7 weeks age) used in the evaluation in advance and a tip of the catheter was exserted from their backs and locked with heparin. The rats were recovered for a few days in the status quo. 105 mg/kg of valine (5.25 mL/kg of 2 W/V % of valine solution) was administered through the catheter to a valine-administered group four times at 15-minute intervals from 60 minutes before the start of administration of a propofol anesthesia agent. Then, valine was continuously administered for 5 hours in 420 mg/kg/hr (21 mL/kg of 2 W/V % valine solution) simultaneously with the start of administration of the propofol anesthesia agent. A normal saline solution was administered instead of a valine solution to an objective group. As for the administration of the propofol anesthesia agent, 15 mg/kg thereof was intravenously administered through the catheter with bolus method at the beginning. Soon after that, the agent was started to be continuously administered in 45 mg/kg/hr. 1 hour later, the administration speed was changed to 33.75 mg/kg/hr and continuous administration was conducted for 5 hours. Numbers of each group were set to 8. As for surgical invasion, abdominals of the rats were opened after the bolus anesthesia, their appendixes were exteriorized from their abdominal cavities and exposed in the air for 30 minutes. Then, their appendixes were put back to their abdominal cavities and sutured. As for the measurement of the body temperatures, a former value was measured with a rectal thermometer before administering the amino acids, and the value was measured again in 3 hours after the administration of propofol. The results were shown as the decreased temperature to Pre value. Survival rates were calculated from number of survivors in 24 hours from the start of the experiment.

Assay [4] deals with peripheral mononuclear blood cells (PBMC) TNF-α production. Description: Effect on production of peripheral mononuclear blood cell TNF-α (PBMC taken after anesthesia and celiotomy, LPS stimulation, ELISA). The following applies: PBMC incubated with 1 μg/mL LPS for 24 hours; valine 4 x 105 mg/kg then 420 mg/kg/hr for 1 hour; n=6. Here is the method:
(§1) The examination was practiced with three groups of a normal group, a valine-administered group and an objective group. A catheter was inserted into an external jugular vein of each of rats (7 to 8 weeks age) used in the evaluation in advance and a tip of the catheter was exserted from their backs and locked with heparin. The rats were recovered for a few days in the status quo. 105 mg/kg of valine (5.25 mL/kg of 2 W/V % of valine solution) was administered through the inserted catheter to the valine-administered group (n=6) four times at 15-minute intervals from 60 minutes before the start of administration of a propofol anesthesia agent. Then, valine was continuously administered for 1 hour in 420 mg/kg/hr (21 mL/kg of 2 W/V % valine solution) simultaneously with the start of administration of the propofol anesthesia agent. A normal saline solution was administered instead of valine to the objective group (n=6). 15 mg/kg of the propofol anesthesia agent was introduced to be administered through the catheter at the beginning, and continuously administered for 3 hours in 33.75 mg/kg/hr. The celiotomy invasion was conducted by opening the abodominals of the rats simultaneously with the administration of the anesthesia, exteriorizing their appendixes from the abdominal cavities, putting them back again at once and suturing the abdominals. The catheter was not inserted to the normal group. […]
Background: An ELISA detects its analyte on a solid surface through an enzyme-linked reagent.

The subject of assay [5] is rats with celiotomy invasion under propofol anesthesia. Kind of assay: Body temperature at the end of anesthesia in the celiotomy invasion experiment. The settings on record: valine-administered group, n=6. Here is the method:
as §1

[6] abbreviates: 0.1% solution i.v. (4 x 10.5 mL/kg before, 42 mL/kg during 1 h of propofol).
Where [7] appears, read: 1% solution i.v. (4 x 10.5 mL/kg before, 42 mL/kg during 1 h of propofol).
The mark [8] stands for this setting: Group A: valine for 2 hours before the start of propofol.
The mark [9] stands for this setting: Group B: valine for 1 hour before + 1 hour after the start of propofol.
[10] abbreviates: Group C: valine for 2 hours simultaneously with the start of propofol.
Setting [11] is: Group D: valine for 2 hours starting 1 hour after the start of propofol.

As to `N[C@@H](CC(=O)O)C(=O)O` [Asparatic Acid, asparatic acid], the “variation of body temperature in 3 hours after administering the anesthesia solution to that before administration” value in assay [1] (setting [6]) was −6.4 °C; in assay [1] (setting [7]), −4.5 °C. In assay [1], the “inhibiting effect of decrease in body temperature (core temperature), in words” value is “inhibiting effect of decrease in body temperature (core temperature) was shown”.
On the same counts, the results for `N[C@@H](CS)C(=O)O` [Cystein, cystein] are −6.3 °C, −4.8 °C and “inhibiting effect of decrease in body temperature (core temperature) was shown”.
On the same counts, the results for `NCC(=O)O` [Glycine, glycine] are −6.4 °C, −6.1 °C and “inhibiting effect of decrease in body temperature (core temperature) was shown”.
In the case of `CC(C)[C@H](N)C(=O)O` [Valine, valine], the “variation of body temperature in 3 hours after administering the anesthesia solution to that before administration” value is −4.8 °C in assay [1] (setting [6]) and −4.0 °C in assay [1] (setting [7]). In assay [1], the “inhibiting effect of decrease in body temperature (core temperature), in words” value is listed as “inhibiting effect of decrease in body temperature (core temperature) was shown”. Besides, the “decrease in body temperature from the time before administration until the end of the anesthesia” value worked out at 6.1±1.9 °C in assay [2] (setting [8]), 4.3±1.2 °C in assay [2] (setting [9]), 6.1±1.4 °C in assay [2] (setting [10]) and 6.9±1.0 °C in assay [2] (setting [11]). Besides, the “increase in body temperature from the end of administration of the anesthesia until 1 hour after” value in assay [2] (setting [8]) is 1.1±0.5 °C; in assay [2] (setting [9]) it was 2.0±1.2 °C; in assay [2] (setting [10]) it was 2.0±0.9 °C; in assay [2] (setting [11]) it was 1.0±0.6 °C. In addition, the “inhibiting effect of decrease in body temperature, in words” value in assay [2] (setting [11]) was “inhibiting effect of decrease in body temperature was not shown”. Moreover, the “inhibition of the decrease in body temperature versus the objective (saline) group” value in assay [3] (3 hours after administration of propofol) is 1.19 °C. For the same molecule, the “decrease in body temperature to Pre value” in assay [3] (3 hours after administration of propofol, valine 4 x 105 mg/kg then 420 mg/kg/hr for 5 hours, n=8) was found to be 7.83±0.87 °C. Further, the “survival rate after one day” value in assay [3] (24 hours from the start of the experiment, n=8) is recorded as 87.5%. In addition, in assay [4], the “production quantity of TNF-α” value is listed as 1389.8±415.8 pg/1×10^6 cells. In assay [5], the “body temperature at the end of the administration of the anesthesia” value worked out at 31.2±0.8 °C.
